In US12661334B2, “Dietary butyrate and its uses” (SOCIETE DES PRODUITS NESTLE S.A., priority 2019, dated 2026):

Assays:
[1] = molecular target: T1, porcine pancreatic lipase (PPL) (Sus scrofa, UniProt P00591); settings: pig, 3 h, pH 11.5
T1 sequence (P00591 1-450): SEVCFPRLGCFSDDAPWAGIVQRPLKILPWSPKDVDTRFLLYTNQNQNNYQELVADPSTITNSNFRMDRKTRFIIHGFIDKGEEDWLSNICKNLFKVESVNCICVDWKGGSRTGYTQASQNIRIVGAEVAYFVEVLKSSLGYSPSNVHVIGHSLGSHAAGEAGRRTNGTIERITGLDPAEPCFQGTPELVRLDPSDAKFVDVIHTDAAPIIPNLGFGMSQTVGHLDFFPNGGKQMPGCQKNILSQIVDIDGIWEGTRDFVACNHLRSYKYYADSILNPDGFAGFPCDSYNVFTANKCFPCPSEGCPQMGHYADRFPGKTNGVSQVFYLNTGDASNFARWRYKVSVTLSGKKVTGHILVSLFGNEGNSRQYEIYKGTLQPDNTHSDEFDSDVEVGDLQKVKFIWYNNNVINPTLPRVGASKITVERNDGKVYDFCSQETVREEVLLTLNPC
T1 sequence (P02703 23-112 partner): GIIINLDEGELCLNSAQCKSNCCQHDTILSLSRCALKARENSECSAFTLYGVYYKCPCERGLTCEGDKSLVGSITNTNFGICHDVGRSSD
Text: Because many fatty acids are only partially ionised at pH 6.8, direct titration gives only partial picture of the extent of lipid digestion, instead back titration to pH 11.5 or GC-FAME analysis is required to estimate the full extent of digestion.

[2] = system: rabbit gastric lipase (RGL) followed by porcine pancreatic lipase (PPL)

Extent of digestion [1]: 101.5±0.9%
Total amount of acid released ([2]; rabbit (gastric lipase), pig (pancreatic lipase), 3 h, pH 6.8): 381 ± 20 µmol
Initial lipolysis rate in SIF ([2]; rabbit (gastric lipase), pig (pancreatic lipase), pH 6.8): 44.1 ± 8.8 µmol/min
Lipolysis by gastric lipase ([2]; rabbit, 90 min, 19 mg/mL, pH 5.5): ~60%
Structure (SMILES): CCCC(=O)OCC(COC(=O)CCC)OC(=O)CCC [tributyrin]
